# Source: US20250041280A1, “USE OF HETEROCYCLIC COMPOUNDS IN ALLEVIATING ADVERSE REACTIONS CAUSED BY CHEMOTHERAPEUTIC DRUGS” (TSINGHUA UNIVERSITY, priority 2021, published 2025)
# Tests used:
# human colon organoids = test: Protection of ISX on human colon organoids, bright field and live cells/dead cells double staining; conditions: 5-FU 20 uM alone
# From the text: Calcein-AM/PI Live Cells/Dead Cells Double Staining Assay
# Calcein-AM can permeate the cell membrane, and the esterase in living cells can remove its AM group to produce calcein and emit fluorescence. PI (propidium iodide) cannot pass through the intact cell membrane, and only after the cell membrane is damaged and the permeability changes, PI can enter the cell to combine with DNA and emit fluorescence. Therefore, Calcein-AM/PI can be a label for distinguishing the live or dead cells.
# Colon tissues were isolated from normal human tissue to perform organoid culture, after the culture was stable, performing subculture to continue the culture for 3-5 days. The culture was dividing into 4 groups: a control group of adding DMSO alone (DMSO group); a group of adding chemotherapy drug 5-fluorouracil (5-FU, 20 uM) alone (5-FU group); a group of adding ISX (10 uM) alone (ISX group); and a group of adding 5-FU (50 uM) and ISX (25 uM) simultaneously (5-FU+ISX group).
# The signal generated by PI in the fluorescence image represents dead cells, and the signal generated by Calcein-AM represents living cells.
# [1] = test system: small intestinal organoids in mice; test: Protection of ISX on injury of mouse small intestinal organoids caused by 5-FU, bright field and live cells/dead cells double staining; format: cell-based; conditions: then 4 days of culture
# From the text: (§1) 1. Isolation of Crypts and Culture of Organoids
# [2] = test system: small intestinal organoids in mice; test: Protection of ISX on injury of mouse small intestinal organoids caused by 5-FU, immunofluorescence staining (cleaved caspase-3); conditions: 5-FU 50 uM alone, 4 hours of treatment; FIG. 1
# From the text: as §1
# (§2) 3. Immunofluorescence of Organoids
# [3] = test system: small intestinal organoids in mice; test: Comparative experiment on the protective effects of PD332991, CHIR99021 and ISX on intestinal organoids; conditions: then 4 days of culture, FIG. 13
# From the text: as §1
# In this example, PD0332991 and CHIR99021 were used as reference compounds to evaluate the protective effect of the compounds of the present application on intestinal organoids.
# After treatment, all compound treatments were terminated, and the organoids were washed 3 times with PBS, then culturing in fresh medium.
# [4] = test system: small intestinal organoids in mice; test: Protection of ISX on injury of mouse small intestinal organoids caused by etoposide, bright field and live cells/dead cells double staining; format: cell-based; conditions: then 4 days of culture
# From the text: as §1
# intestinal tract of mice = test: Protective effect of ISX on the intestinal tract of mice, TUNEL assay; format: in vivo; conditions: etoposide 20 mg/kg intraperitoneally, ISX 20 mg/kg orally
# Method: 6-8 week-old wild-type B6 mice were randomly divided into two groups. One group was intraperitoneally injected with chemotherapeutic drug etoposide (20 mg/kg), and then orally administered a cosolvent (5% DMSO+0.5% Tween 80+0.5% CMC-Na) (5 mL/kg); another group was intraperitoneally injected with chemotherapeutic drug etoposide (20 mg/kg), and then orally administered ISX dissolved in a cosolvent (20 mg/kg). The mice were sacrificed 3 hours later, and the intestinal tissues were fixed, followed by TUNEL staining assay.
# [5] = test system: small intestinal organoids in mice; test: Protection of ISX on injury of mouse small intestinal organoids caused by etoposide, Western blotting; format: cell-based; conditions: etoposide 50 uM + ISX 25 uM, 4 hours of treatment; FIG. 5
# Method: as §1
# 5. Western Blotting Assay
# After 4 hours of treatment, 4 groups of samples were collected for Western blotting assay.
# [6] = test system: small intestinal organoids in mice; test: Protection of ISX on injury of mouse small intestinal organoids caused by etoposide, immunofluorescence staining; format: cell-based; conditions: etoposide 50 uM + ISX 25 uM, 4 hours of treatment; FIG. 4
# From the text: as §1, §2
# [7] = etoposide 50 uM + ISX 25 uM, 8 hours of treatment, FIG. 6
# [8] = 5-FU 50 uM + ISX 25 uM, 8 hours of treatment, FIG. 2
smiles,measurement,setting,value
"O=c1[nH]cc(F)c(=O)[nH]1 [5-FU, 5-fluorouracil]","number of crypt structures, 5-FU group vs DMSO group","human colon organoids; 48 hours of treatment, p<0.01, FIGS. 8-9",significantly reduced
same,"dead cells (PI), 5-FU group compared with DMSO group","human colon organoids; culture until day 5, FIG. 10",increased significantly
same,"biomass (bright field), 5-FU group compared with DMSO group","[1]; 5-FU 50 uM alone, 8 hours of treatment, FIG. 2",significantly reduced
same,"dead cells (cleaved caspase-3 signal), 5-FU group vs DMSO group",[2],significantly higher
Cc1c[nH]c(-c2cnc(NCCNc3ccc(C#N)cn3)nc2-c2ccc(Cl)cc2Cl)n1 [CHIR99021],protection of small intestinal organoids against 5-FU (live cells/dead cells double staining),[3]; 5-FU 25 uM + CHIR99021 10 uM,cannot protect small intestinal organoids
"COc1cc([C@@H]2c3cc4c(cc3[C@@H](O[C@@H]3O[C@@H]5CO[C@@H](C)O[C@H]5[C@H](O)[C@H]3O)[C@H]3COC(=O)[C@H]23)OCO4)cc(OC)c1O [Eto, etoposide, reference compound]","biomass (bright field), Eto group compared with DMSO group","[4]; etoposide 50 uM alone, 8 hours of treatment, FIG. 6",significantly reduced
O=C(NC1CC1)c1cc(-c2cccs2)on1 [ISX],"number of TUNEL signals in each crypt, ISX group vs cosolvent group","intestinal tract of mice; 3 hours, p<0.01, FIG. 12",significant difference
same,"TUNEL signal, orally administered ISX group vs cosolvent group","intestinal tract of mice; sacrificed 3 hours later, FIG. 11",significantly lower
same,"biomass (bright field), Eto+ISX group compared with the Eto group",[4]; [7],significantly increased
same,"number of living cells (Calcein-AM), Eto+ISX group vs Eto group",[4]; [7],significantly more
same,"number of surviving crypt structures in each organoid, Eto+ISX group vs Eto group","[4]; etoposide 50 uM + ISX 25 uM, 8 hours, p<0.01, FIG. 7",significant difference
same,"biomass (bright field), 5-FU+ISX group compared with the 5-FU group",[1]; [8],significantly increased
same,"number of living cells (Calcein-AM), 5-FU+ISX group vs 5-FU group",[1]; [8],significantly more
same,"number of surviving crypt structures in each organoid, 5-FU+ISX group vs 5-FU group","[1]; 5-FU 50 uM + ISX 25 uM, 8 hours, p<0.01, FIG. 3",significant difference
same,cell death caused by etoposide (Western blotting),[5],significantly reduce the cell death
same,cell death (cleaved caspase-3 signal) caused by etoposide,[6],significantly reduce the cell death
CC(=O)c1c(C)c2cnc(Nc3ccc(N4CCNCC4)cn3)nc2n(C2CCCC2)c1=O [PD332991],protection of small intestinal organoids against 5-FU (live cells/dead cells double staining),[3]; 5-FU 25 uM + PD0332991 100 nM,cannot protect small intestinal organoids
